Experimental data as given in patent publication US10294202B2, “Pyrrolidinones as herbicides” (FMC Corporation, priority 2013, dated 2019).

Experiments:
barnyardgrass [1] = test: Test A pre-/postemergence herbicide test; assay type: in vivo, Echinochloa crus-galli
Summary of the method: (§1)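 Seeds sown in loam soil/sand blend received a preemergence directed soil spray of test chemical in non-phytotoxic solvent with surfactant; postemergence plants (2–10 cm, one- to two-leaf stage) were sprayed with the same formulation. After about 10 days in greenhouse, injury was rated visually versus untreated controls, 0 (no effect) to 100 (complete control).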

galium = test: Test A postemergence herbicide test; assay type: in vivo, Galium aparine
Summary of the method: (§2)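 Plants at the one- to two-leaf stage, 2–10 cm tall, grown in loam/sand pots, received postemergence sprays of the test chemicals. After about 10 days in the greenhouse, injury was scored visually against untreated controls on a 0–100 scale (0 none, 100 complete control).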

wheat = test: Test A pre-/postemergence herbicide test; assay type: in vivo, Triticum aestivum
Summary of the method: as §1

blackgrass = test: Test A postemergence herbicide test; assay type: in vivo, Alopecurus myosuroides
Summary of the method: as §2

morningglory = test: Test A pre-/postemergence herbicide test; assay type: in vivo, Ipomoea spp.
Summary of the method: as §1

ducksalad [2] = test: Test C flooded paddy test; assay type: in vivo, Heteranthera limosa; details: Flood
Summary of the method: (§3)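 Ratings reflect visual comparison with controls on a 0–100 scale, where 100 is complete control. Compound is dosed into standing paddy water 3 cm deep over 2-leaf-stage plants, kept in the greenhouse 13 to 15 days.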

barnyardgrass [3] = test: Test C flooded paddy test; assay type: in vivo, Echinochloa crus-galli; details: Flood
Summary of the method: as §3

giant foxtail = test: Test A pre-/postemergence herbicide test; assay type: in vivo, Setaria faberii
Summary of the method: as §1

ryegrass, Italian = test: Test A pre-/postemergence herbicide test; assay type: in vivo, Lolium multiflorum
Summary of the method: as §1

kochia = test: Test A pre-/postemergence herbicide test; assay type: in vivo, Kochia scoparia
Summary of the method: as §1

ragweed = test: Test A pre-/postemergence herbicide test; assay type: in vivo, Ambrosia elatior
Summary of the method: as §1

corn = test: Test A pre-/postemergence herbicide test; assay type: in vivo, Zea mays
Summary of the method: as §1

pigweed = test: Test A pre-/postemergence herbicide test; assay type: in vivo, Amaranthus retroflexus
Summary of the method: as §1

rice [4] = test: Test C flooded paddy test; assay type: in vivo, Oryza sativa; details: Flood
Summary of the method: as §3

sedge, umbrella [5] = test: Test C flooded paddy test; assay type: in vivo, Cyperus difformis; details: Flood
Summary of the method: as §3

velvetleaf = test: Test A pre-/postemergence herbicide test; assay type: in vivo, Abutilon theophrasti
Summary of the method: as §1

crabgrass, large = test: Test A pre-/postemergence herbicide test; assay type: in vivo, Digitaria sanguinalis
Summary of the method: as §1

rice [6] = test: Test B flooded paddy test; assay type: in vivo, Oryza sativa; details: 250 g ai/ha, Flood; scale of 0 to 100 where 0 is no effect and 100 is complete control
Summary of the method: (§4)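 Scored visually 0–100 (0 no effect, 100 complete control) versus controls after 13 to 15 greenhouse days. Treatment: compound added to paddy water kept 3 cm above soil, on 2-leaf-stage plants.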

barnyardgrass [7] = test: Test B flooded paddy test; assay type: in vivo, Echinochloa crus-galli; details: 250 g ai/ha, Flood; scale of 0 to 100 where 0 is no effect and 100 is complete control
Summary of the method: as §4

sedge, umbrella [8] = test: Test B flooded paddy test; assay type: in vivo, Cyperus difformis; details: 250 g ai/ha, Flood; scale of 0 to 100 where 0 is no effect and 100 is complete control
Summary of the method: as §4

ducksalad [9] = test: Test B flooded paddy test; assay type: in vivo, Heteranthera limosa; details: 250 g ai/ha, Flood; scale of 0 to 100 where 0 is no effect and 100 is complete control
Summary of the method: as §4

[10] = Postemergence, 125 g ai/ha, 0 to 100 scale, 0 is no effect, 100 is complete control
[11] = Postemergence, 500 g ai/ha, 0 to 100 scale (0 no effect, 100 complete control)
[12] = Preemergence, 125 g ai/ha, 0 to 100 scale where 0 is no effect and 100 is complete control
[13] = preemergence, 500 g ai/ha, 0 to 100 scale, 0 is no effect and 100 is complete control
[14] = 125 g ai/ha, 0 to 100 scale, 0 is no effect, 100 is complete control
[15] = 500 g ai/ha, 0 to 100 scale (0 no effect, 100 complete control)
[16] = Postemergence, 125 g ai/ha, visual rating on 0 to 100 scale (0 no effect, 100 complete control), approx. 10 days
[17] = 125 g ai/ha, scale of 0 to 100 where 0 is no effect and 100 is complete control, 13 to 15 days
[18] = 250 g ai/ha, scale of 0 to 100 where 0 is no effect and 100 is complete control, 13 to 15 days
[19] = Postemergence, 125 g ai/ha, 0 to 100 scale, 0 no effect, 100 complete control
[20] = Preemergence, 125 g ai/ha, visual rating on 0 to 100 scale (0 no effect, 100 complete control)
[21] = preemergence, 500 g ai/ha, 0 to 100 scale

SMILES: CN1CC(c2ccc(F)cc2)C(C(=O)Nc2ccccc2F)C1=O (stereo not drawn) [Compound 270]
- Plant response rating, Barnyardgrass (barnyardgrass [1]; [10]): 90
- Plant response rating, Barnyardgrass (barnyardgrass [1]; [11]): 90
- Plant response rating, Barnyardgrass (barnyardgrass [1]; [12]): 60
- Plant response rating, Barnyardgrass (barnyardgrass [1]; [13]): 90
- Plant response rating, Galium (galium; [14]): 20
- Plant response rating, Galium (galium; [15]): 50
- Plant response rating, Wheat (wheat; [16]): 0
- Plant response rating, Wheat (wheat; [11]): 20
- Plant response rating, Blackgrass (blackgrass; [14]): 0
- Plant response rating, Blackgrass (blackgrass; [15]): 20
- Plant response rating, Morningglory (morningglory; [16]): 0
- Plant response rating, Ducksalad (ducksalad [2]; [17]): 75
- Plant response rating, Ducksalad (ducksalad [2]; [18]): 85
- Plant response rating, Ducksalad (ducksalad [2]; 500 g ai/ha, scale 0 to 100): 100
- Plant response rating, Ducksalad (ducksalad [2]; 1000 g ai/ha, scale 0 to 100): 100
- Plant response rating, Barnyardgrass (barnyardgrass [3]; [17]): 10
- Plant response rating, Barnyardgrass (barnyardgrass [3]; [18]): 30
- Plant response rating, Barnyardgrass (barnyardgrass [3]; 500 g ai/ha, scale 0 to 100): 60
- Plant response rating, Barnyardgrass (barnyardgrass [3]; 1000 g ai/ha, scale 0 to 100): 80
- Plant response rating, Foxtail, Giant (giant foxtail; [10]): 60
- Plant response rating, Foxtail, Giant (giant foxtail; [11]): 90
- Plant response rating, Foxtail, Giant (giant foxtail; [12]): 80
- Plant response rating, Foxtail, Giant (giant foxtail; [13]): 90
- Plant response rating, Ryegrass, Italian (ryegrass, Italian; [11]): 20
- Plant response rating, Ryegrass, Italian (ryegrass, Italian; [12]): 0
- Plant response rating, Ryegrass, Italian (ryegrass, Italian; [13]): 0
- Plant response rating, Kochia (kochia; [10]): 0
- Plant response rating, Kochia (kochia; [11]): 30
- Plant response rating, Kochia (kochia; [12]): 0
- Plant response rating, Kochia (kochia; [13]): 80
- Plant response rating, Ragweed (ragweed; [11]): 0
- Plant response rating, Ragweed (ragweed; [12]): 0
- Plant response rating, Ragweed (ragweed; [13]): 20
- Plant response rating, Corn (corn; [10]): 0
- Plant response rating, Corn (corn; [11]): 30
- Plant response rating, Pigweed (pigweed; [16]): 40
- Plant response rating, Pigweed (pigweed; [11]): 0
- Plant response rating, Pigweed (pigweed; [12]): 0
- Plant response rating, Pigweed (pigweed; [13]): 20
- Plant response rating, Rice (rice [4]; [17]): 0
- Plant response rating, Rice (rice [4]; [18]): 0
- Plant response rating, Rice (rice [4]; 500 g ai/ha, scale 0 to 100): 0
- Plant response rating, Rice (rice [4]; 1000 g ai/ha, scale 0 to 100): 0
- Plant response rating, Sedge, Umbrella (sedge, umbrella [5]; [17]): 0
- Plant response rating, Sedge, Umbrella (sedge, umbrella [5]; [18]): 0
- Plant response rating, Sedge, Umbrella (sedge, umbrella [5]; 500 g ai/ha, scale 0 to 100): 0
- Plant response rating, Sedge, Umbrella (sedge, umbrella [5]; 1000 g ai/ha, scale 0 to 100): 0

SMILES: O=C1NCC(c2cccc(Cl)c2)C1C(=O)Nc1ccccc1F (racemic) [Compound 89]
- Plant response rating, Barnyardgrass (barnyardgrass [1]; [19]): 60
- Plant response rating, Barnyardgrass (barnyardgrass [1]; [11]): 80
- Barnyardgrass plant response rating (barnyardgrass [1]; [20]): 60
- Plant response rating, Barnyardgrass (barnyardgrass [1]; preemergence, 500 g ai/ha, 0 to 100 scale (0 no effect, 100 complete control)): 80
- Plant response rating, Velvetleaf (velvetleaf; [19]): 0
- Plant response rating, Velvetleaf (velvetleaf; [11]): 0
- Velvetleaf plant response rating (velvetleaf; [20]): 0
- Plant response rating, Velvetleaf (velvetleaf; [21]): 0
- Plant response rating, Wheat (wheat; [19]): 0
- Plant response rating, Wheat (wheat; [11]): 20
- Wheat plant response rating (wheat; [20]): 0
- Plant response rating, Wheat (wheat; [21]): 10
- Plant response rating, Crabgrass, Large (crabgrass, large; [19]): 60
- Plant response rating, Crabgrass, Large (crabgrass, large; [11]): 80
- Crabgrass, Large plant response rating (crabgrass, large; [20]): 80
- Plant response rating, Crabgrass, Large (crabgrass, large; [21]): 90
- Plant response rating, Morningglory (morningglory; [19]): 0
- Plant response rating, Morningglory (morningglory; [11]): 10
- Morningglory plant response rating (morningglory; [20]): 0
- Plant response rating, Morningglory (morningglory; [21]): 0
- Plant response rating, Ducksalad (ducksalad [2]; [17]): 70
- Plant response rating, Ducksalad (ducksalad [2]; 250 g ai/ha, scale 0 to 100): 85
- Plant response rating, Ducksalad (ducksalad [2]; 500 g ai/ha, scale 0 to 100): 100
- Plant response rating, Ducksalad (ducksalad [2]; 1000 g ai/ha, scale 0 to 100): 100
- Plant response rating, Barnyardgrass (barnyardgrass [3]; [17]): 20
- Plant response rating, Barnyardgrass (barnyardgrass [3]; 250 g ai/ha, scale 0 to 100): 20
- Plant response rating, Barnyardgrass (barnyardgrass [3]; 500 g ai/ha, scale 0 to 100): 40
- Plant response rating, Barnyardgrass (barnyardgrass [3]; 1000 g ai/ha, scale 0 to 100): 75
- Plant response rating, Foxtail, Giant (giant foxtail; [19]): 60
- Plant response rating, Foxtail, Giant (giant foxtail; [11]): 80
- Foxtail, Giant plant response rating (giant foxtail; [20]): 80
- Plant response rating, Foxtail, Giant (giant foxtail; [21]): 90
- Plant response rating, Rice (rice [6]): 20
- Plant response rating, Barnyardgrass (barnyardgrass [7]): 60
- Plant response rating, Sedge, Umbrella (sedge, umbrella [8]): 0
- Plant response rating, Corn (corn; [19]): 0
- Plant response rating, Corn (corn; [11]): 30
- Corn plant response rating (corn; [20]): 0
- Plant response rating, Corn (corn; [21]): 0
- Plant response rating, Pigweed (pigweed; [19]): 0
- Plant response rating, Pigweed (pigweed; [11]): 20
- Pigweed plant response rating (pigweed; [20]): 0
- Plant response rating, Pigweed (pigweed; [21]): 0
- Plant response rating, Rice (rice [4]; [17]): 0
- Plant response rating, Rice (rice [4]; 250 g ai/ha, scale 0 to 100): 0
- Plant response rating, Rice (rice [4]; 500 g ai/ha, scale 0 to 100): 0
- Plant response rating, Rice (rice [4]; 1000 g ai/ha, scale 0 to 100): 0
- Plant response rating, Sedge, Umbrella (sedge, umbrella [5]; [17]): 0
- Plant response rating, Sedge, Umbrella (sedge, umbrella [5]; 250 g ai/ha, scale 0 to 100): 0
- Plant response rating, Sedge, Umbrella (sedge, umbrella [5]; 500 g ai/ha, scale 0 to 100): 0
- Plant response rating, Sedge, Umbrella (sedge, umbrella [5]; 1000 g ai/ha, scale 0 to 100): 0
- Plant response rating, Ducksalad (ducksalad [9]): 70
